Holding throughout (type): biochemical
Test [1] deals with human IDE Ile362Gln and Gly362Gln. Nature of the test: Activity assay of mutant human IDE variants Ile362Gln and Gly362Gln with IDE inhibitors. An excerpt:
(§1) N-His6-tagged human IDE42-1019 construct was introduced in the expression plasmid pTrcHis-A (Invitrogen) using primers for uracil-specific excision reactions (USER) by Taq (NEB) and Pfu polymerases (PfuTurbo CX®, Agilent), as described in more detail in Maianti et al. (Nature (2014), 511, 94-98), which is incorporated by reference herein. The IDE gene was amplified with the primers 5′-[…]-dU-[…] (SEQ ID NO: 26) and 5′-[…] G-dU-[…] (SEQ ID NO: 27) (underlined sequences represent overhangs, and italics highlight the PCR priming sequence). Similarly, the pTrcHis-A vector was amplified for USER cloning with the primers 5′-[…]-dU-[…] (SEQ ID NO: 28) and 5′-[…]-dU-[…] (SEQ ID NO: 29). Mutant IDE constructs were generated by amplifying the full vector construct with USER cloning primers introducing a mutant overhang (see Table E6).
(§2) Recombinant His6-tagged proteins were purified by Ni(II)-affinity chromatography (IMAC sepharose beads, GE Healthcare®) according to the manufacturer's instructions. The cell pellets were re-suspended in pH 8.0 buffer containing 50 mM phosphate, 300 mM NaCl, 10 mM imidazole, 1% Triton X-100 and 1 mM tris(2-carboxyethyl)phosphine hydrochloride (TCEP), and were lysed by probe sonication for 4 minutes at <4° C., followed by clearing of cell debris by centrifugation at 10,000 g for 25 minutes at 4° C. […]

Test [2] has as its system human IDE Val360Gln and Tyr314Phe. Nature of the test: Activity assay of mutant human IDE variants Val360Gln and Tyr314Phe with IDE inhibitors.
Text: as §1, §2

Test [3] addresses T1, IDE, substrate amylin (fp) peptide (Homo sapiens, UniProt P14735).
T1 sequence (P14735 1-1019): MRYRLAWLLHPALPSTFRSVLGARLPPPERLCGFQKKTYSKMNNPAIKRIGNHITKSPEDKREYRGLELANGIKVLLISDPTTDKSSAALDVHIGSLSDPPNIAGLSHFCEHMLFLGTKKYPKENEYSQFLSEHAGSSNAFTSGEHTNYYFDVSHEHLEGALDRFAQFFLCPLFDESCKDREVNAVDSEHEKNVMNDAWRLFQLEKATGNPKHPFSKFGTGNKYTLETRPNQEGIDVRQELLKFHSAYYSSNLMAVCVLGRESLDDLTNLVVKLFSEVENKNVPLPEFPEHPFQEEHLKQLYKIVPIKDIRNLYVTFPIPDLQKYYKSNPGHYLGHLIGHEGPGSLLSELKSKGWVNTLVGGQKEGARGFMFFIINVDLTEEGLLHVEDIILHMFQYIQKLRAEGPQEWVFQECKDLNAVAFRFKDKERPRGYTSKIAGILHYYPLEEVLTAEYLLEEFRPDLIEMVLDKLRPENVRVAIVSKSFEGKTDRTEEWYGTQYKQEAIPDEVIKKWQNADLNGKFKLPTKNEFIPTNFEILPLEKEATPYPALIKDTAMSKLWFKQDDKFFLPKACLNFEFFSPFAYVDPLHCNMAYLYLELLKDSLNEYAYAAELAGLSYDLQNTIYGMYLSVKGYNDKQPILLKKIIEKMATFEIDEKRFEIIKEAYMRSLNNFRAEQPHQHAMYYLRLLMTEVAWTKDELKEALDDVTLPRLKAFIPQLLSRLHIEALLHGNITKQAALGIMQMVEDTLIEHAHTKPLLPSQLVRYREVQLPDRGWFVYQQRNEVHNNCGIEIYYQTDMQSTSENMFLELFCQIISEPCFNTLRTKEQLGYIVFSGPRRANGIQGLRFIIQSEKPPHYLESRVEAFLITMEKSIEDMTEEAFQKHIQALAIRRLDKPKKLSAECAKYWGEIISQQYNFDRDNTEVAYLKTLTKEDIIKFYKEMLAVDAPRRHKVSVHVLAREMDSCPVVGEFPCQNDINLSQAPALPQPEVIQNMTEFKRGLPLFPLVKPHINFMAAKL
Nature of the test: IDE concentration dependence profile with fluorogenic amylin analog. The note with it: FIGS. 11B and 11C. As for the experimental part:
In order to determine the behavior of the inhibitors with respect to amylin, a concentration dependence profile was measured for IDE in the presence of a specified concentration of inhibitor and a fluorogenic amylin analog. The amylin (fp) peptide sequence was KCNTATCATXRLANFLVHSSNNZGAILSSTNVGSNTY-NH2 (SEQ ID NO: 8). The residue marked as X is Lys-γN-anthrinilamide, and the residue marked as Z is 3-nitro-Tyr.

`Cc1cccc(-c2ccc([C@@H]3[C@@H](CO)N4CCCCN(S(=O)(=O)c5ccccc5C)C[C@@H]34)cc2)c1` [compound 297]: in test [1], the “effect of mutations Ile362Gln and Gly362Gln on inhibition potency” value was “reduce the inhibition potency”. In addition, the “effect of variants Val360Gln and Tyr314Phe on potency” value in test [2] is “minor impacts on potency”. Besides, in test [3] (amylin (fp) curve compared with HTRF glucagon curve), the “selectivity for inhibiting degradation of amylin over glucagon” value was “selectivity for inhibiting degradation of amylin over degradation of glucagon”. In test [3] (amylin (fp) curve compared with HTRF insulin and glucagon curves), the “selectivity for inhibiting degradation of insulin over amylin and glucagon” value was “selectivity for inhibiting degradation of insulin over degradation of amylin and glucagon”.

Values taken from patent US11040976B2, “Substrate selective inhibitors of insulin-degrading enzyme (IDE) and uses thereof” (President and Fellows of Harvard College, priority 2015, dated 2021).
